Columns and labels:
[1] = Chiral stability at pH 7.4 (enantiomeric excess by Chiral SFC after incubation); type: physicochemical; details: buffered solution pH 7.4, 5 μM
Description: The chiral stability of Enantiomer 10B (R=OMe) was evaluated by determination of the enantiomeric excess (ee %) after incubation for 24 h and 48 h in a buffered solution at pH 7.4 at 40° C. and 60° C. To assess the influence of the methoxy-substituent of Enantiomer 10B (R=OMe) on the stability against racemization, the chiral stability of Enantiomer 10′B (R=H) was tested under the same conditions. To this end, 5 μM buffered (pH=7.4) solutions of 10B and 10′B were prepared by mixing 25 μL of a 100 μM solution of 10B and 10′B in DMSO with 475 μL aqueous buffer pH 7.4. Samples were taken 24 h and 48 h after incubation at 40° C. and 60° C. The analytical samples were analyzed by Chiral SFC (MS detection) and the chiral purity was expressed as the enantiomeric excess (ee %=% enantiomer B−% enantiomer A).

[2] = system: Vero cells; assay: in vitro; type: cell-based; details: African green monkey
How it was run: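 On the same plates after eGFP read-out, resazurin was added and cells incubated a further 5 h at 37 °C, 5% CO2; resorufin fluorescence read with 530 nm excitation. CC50 is the concentration halving resazurin conversion versus cell control; SI = CC50/EC50.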

[3] = system: DENV-2 strain 16681; assay: Tetravalent RT-qPCR assay Protocol A, serotype 2; type: cell-based; details: Dengue virus, DENV2, 72 h; RT-qPCR serotype 2 16681, Vero cells, day 3
Description: (§1) The antiviral activity of the compounds of the invention was tested against DENV-1 strain TC974#666 (NCPV; Table 6), DENV-2 strain 16681 (Table 7), DENV-3 strain H87 (NCPV; Table 8) and DENV-4 strains H241 (NCPV; Table 9) in a RT-qPCR assay. Therefore, Vero cells were infected with either DENV-1, or -2, or -3, or -4 in the presence or absence of test compounds. At day 3 post-infection, the cells were lysed and cell lysates were used to prepare cDNA of both a viral target (the 3′UTR of DENV; table 2) and a cellular reference gene (β-actin, table 2). Subsequently, a duplex real time PCR was performed on a Lightcycler480 instrument. The generated Cp value is inversely proportional to the amount of RNA expression of these targets. Inhibition of DENV replication by a test compound result in a shift of Cp's for the 3′UTR gene. On the other hand, if a test compound is toxic to the cells, a similar effect on β-actin expression will be observed. The comparative ΔΔCp method is used to calculate EC50, which is based on the relative gene expression of the target gene (3′UTR) normalized with the cellular housekeeping gene (β-actin).
(§2) The culture medium consisted of minimal essential medium supplemented with 2% of heat-inactivated fetal calf serum, 0.04% gentamycin (50 mg/mL) and 2 mM of L-glutamine. Vero cells, obtained from ECACC, were suspended in culture medium and 75 μL/well was added in 96-well plates (10000 cells/well), which already contain the antiviral compounds. Typically, these plates contain a 4-fold serial dilution of 9 dilution steps of the test compound at 200 times the final concentration in 100% DMSO (500 nL; final concentration range: 25 μM-0.00038 μM). In addition, each plate contains wells which are assigned as virus controls (containing cells and virus in the absence of compound) and cell controls (containing cells in the absence of virus and compound). Once the cells were added in the plates, the plates were incubated in a fully humidified incubator (37° C., 5% CO2) until the next day. Then, DENV-1 strain TC974#666 at an MOI of 0.6, DENV-2 strain 16681 at an MOI of 0.01, DENV-3 strain H87 at an MOI of 1.0 and DENV-4 strains H241 at an MOI of 0.2 and SG/06K2270DK1/2005 at an MOI of 0.16, were added. Therefore, 25 μL of virus suspension was added to all the wells containing test compound and to the wells assigned as virus control. In parallel, 25 μL of culture medium was added to the cell controls. Next, the plates were incubated for 3 days in a fully humidified incubator (37° C., 5% CO2). After 3 days, the supernatant was removed from the wells and the cells were washed twice with ice-cold PBS (˜100 μL). The cell pellets within the 96-well plates were stored at −80° C. for at least 1 day. Next, RNA was extracted using the Cells-to-CT™ lysis kit, according to the manufacture's guideline (Applied Biosystems). The cell lysates can be stored at −80° C. or immediately used in the reverse transcription step.
(§3) In preparation of the reverse transcription step, mix A (table 3A) was prepared and 7.57 μL/well was dispensed in a 96-well plate. After addition of 5 μL of the cell lysates, a five minute denaturation step at 75° C. was performed (table 3B). Afterwards, 7.43 μL of mix B was added (table 3C) and the reverse transcription step was initiated (table 3D) to generate cDNA.
(§4) Finally, a RT-qPCR mix was prepared, mix C (table 4A), dispensed in 96-well LightCycler qPCR plates to which 3 μL of cDNA was added and the qPCR was performed according to the conditions in table 4B on a LightCycler 480. Using the LightCycler software and an in-house LIMS system, dose response curves for each compound were calculated and the half maximal effective concentration (EC50) and the half maximal cytotoxic concentration (CC50) were determined.

[4] = system: DENV-3 strain H87; assay: Tetravalent RT-qPCR assay Protocol A, serotype 3; type: cell-based; details: Dengue virus, DENV3, 72 h; RT-qPCR serotype 3 H87, Vero cells, day 3
Description: as §1, §2, §3, §4

COc1cc(NC(C(=O)c2c[nH]c3cc(OC)c(C)cc23)c2ccc(F)cc2OC)cc(S(C)(=O)=O)c1 (single isomer, unassigned) [Enantiomer 10B, 2-(4-fluoro-2-methoxyphenyl)-2-((3-methoxy-5-(methylsulfonyl)phenyl)amino)-1-(6-methoxy-5-methyl-1H-indol-3-yl)ethanone]
ee % ([1]; 40° C., 24 h): 100%
ee % ([1]; 40° C., 48 h): 100%
ee % ([1]; 60° C., 24 h): 97%
ee % ([1]; 60° C., 48 h): 97%
CC50 [2]: 4500 nM
EC50 [3]: 0.605 nM
EC50 [4]: 55.4 nM

From US10029984B2, “Mono- or di-substituted indole derivatives as dengue viral replication inhibitors” (Janssen Pharmaceuticals, Inc., priority 2015, dated 2018)
